Experimental data as given in ChEMBL document CHEMBL1136024, “CCR3 antagonists: a potential new therapy for the treatment of asthma. Discovery and structure-activity relationships” (Bioorg Med Chem Lett, 2002).

Molecular target: T1, C-C chemokine receptor type 3 (Homo sapiens, UniProt P51677)
T1 sequence (P51677 whole entry): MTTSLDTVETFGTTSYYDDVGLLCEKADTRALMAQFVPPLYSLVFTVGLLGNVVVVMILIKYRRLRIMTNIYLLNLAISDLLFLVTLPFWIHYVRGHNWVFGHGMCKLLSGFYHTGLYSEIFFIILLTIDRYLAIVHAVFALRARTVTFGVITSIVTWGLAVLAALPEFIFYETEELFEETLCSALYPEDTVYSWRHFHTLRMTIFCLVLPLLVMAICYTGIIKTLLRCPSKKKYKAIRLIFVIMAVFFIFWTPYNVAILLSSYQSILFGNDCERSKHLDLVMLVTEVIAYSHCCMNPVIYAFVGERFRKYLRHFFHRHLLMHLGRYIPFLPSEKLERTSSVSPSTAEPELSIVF
Experiment: In vitro C-C chemokine receptor type 3 receptor activity of compound to inhibit eotaxin induced [Ca2+] mobilization in human Ca2+ mobilization assay
Settings: not given

| IC50 [µM] | Compound |
| --- | --- |
| 0.14 | COc1cccc(NC(=O)N2CCNC(CN3CCC(Cc4ccc(F)cc4)CC3)C2)c1 (racemic) |
| 0.22 | COc1cccc(NC(=O)N2CCOC(CN3CCC(Cc4ccc(F)cc4)CC3)C2)c1 (racemic) |
| 0.2 | COc1cccc(NC(=O)N2CCN(C(=O)OC(C)(C)C)C(CN3CCC(Cc4ccc(F)cc4)CC3)C2)c1 (racemic) |
| 0.82 | COc1cccc(NC(=O)N2CCCC(CN3CCC(Cc4ccc(F)cc4)CC3)C2)c1 (racemic) |

Molecular target: T2, C-C chemokine receptor type 3 (Homo sapiens) (UniProt P51677)
T2 sequence (whole entry): T1 sequence (P51677 whole entry)
Experiment: In vitro inhibitory activity against C-C chemokine receptor type 3 at 10 uM using 150p M [125I]-labeled human eotaxin
Settings: not given

| inhibition [%] | Compound |
| --- | --- |
| 100 | Fc1ccc(CCCN2CC[C@@H]3[C@H](C2)c2cccc4c2N3CC4)cc1 |
| 14 | NCCCN1CC[C@@H]2[C@H](C1)c1cccc3c1N2CC3 |
| 15 | Fc1ccc(CN2CC[C@@H]3[C@H](C2)c2cccc4c2N3CC4)cc1 |
| 45 | O=C(NCCCCN1CC[C@@H]2[C@H](C1)c1cccc3c1N2CC3)C1CCCCC1 |
| 73 | O=C(NCCCCN1CC[C@@H]2[C@H](C1)c1cccc3c1N2CC3)C12CC3CC(CC(C3)C1)C2 |
| 5 | NCCCCN1CC[C@@H]2[C@H](C1)c1cccc3c1N2CC3 |
| 45 | CC(C)(C)C(=O)NCCCCN1CC[C@@H]2[C@H](C1)c1cccc3c1N2CC3 |
| 50 | Fc1ccc(CCN2CC[C@@H]3[C@H](C2)c2cccc4c2N3CC4)cc1 |

| Compound | inhibition [%] |
| --- | --- |
| NCCN1CC[C@@H]2[C@H](C1)c1cccc3c1N2CC3 | 15 |

Molecular target: T1, C-C chemokine receptor type 3
Experiment: In vitro inhibition if C-C chemokine receptor type 3 (CCR3) using 150p M [125I]-labeled human eotaxin
Settings: not given

| Compound | IC50 [µM] |
| --- | --- |
| Fc1ccc(CCCN2CC[C@@H]3[C@H](C2)c2cccc4c2N3CC4)cc1 | 0.5 |
| COc1cccc(NC(=O)N2CCC(CN3CCC(Cc4ccccc4)CC3)CC2)c1 | 1.6 |
| O=C(NCCCCN1CC[C@@H]2[C@H](C1)c1cccc3c1N2CC3)C1CCCCC1 | 11 |
| O=C(NCCCN1CC[C@@H]2[C@H](C1)c1cccc3c1N2CC3)Nc1ccc(C(F)(F)F)cc1 | 3.7 |
| O=C(NCCCN1CCC(Cc2ccccc2)CC1)Nc1ccccc1 | 0.4 |
| COc1cccc(NC(=O)N2CCCC(CN3CCC(Cc4ccccc4)CC3)C2)c1 (racemic) | 0.33 |
| COc1cccc(NC(=O)NCCCN2CCC(Cc3ccccc3)CC2)c1 | 0.3 |
| O=C(NCCCCN1CC[C@@H]2[C@H](C1)c1cccc3c1N2CC3)C12CC3CC(CC(C3)C1)C2 | 6.6 |
| COc1cccc(NC(=O)N2CCO[C@@H](CN3CCC(Cc4ccc(F)cc4)CC3)C2)c1 | 0.26 |
| Cc1ccc(CC2CCN(CCCNC(=O)Nc3cccc(C#N)c3)CC2)cc1 | 0.5 |
| O=C(NCCCN1CCC(Cc2ccc(F)cc2)CC1)NCc1ccccc1 | 0.4 |
| N#Cc1cccc(NC(=O)NCCCN2CCC(Cc3ccccc3F)CC2)c1 | 0.2 |
| O=C(NCCCN1CCC(Cc2ccc(F)cc2)CC1)NCCc1ccccc1 | 0.3 |
| COc1cccc(NC(=O)N2CCCC(CCN3CCC(Cc4ccc(F)cc4)CC3)C2)c1 (racemic) | 0.25 |
| N#Cc1cccc(NC(=O)NCCN2CCC(Cc3ccccc3)CC2)c1 | 0.5 |
| CC(C)(C)C(=O)NCCCCN1CC[C@@H]2[C@H](C1)c1cccc3c1N2CC3 | 25.6 |
| O=S(=O)(NCCCN1CC[C@@H]2[C@H](C1)c1cccc3c1N2CC3)c1ccc(F)cc1 | 10.1 |
| O=C(NCCCCN1CC[C@@H]2[C@H](C1)c1cccc3c1N2CC3)c1ccc(F)cc1 | 3.9 |
| O=C(NCCCN1CC[C@@H]2[C@H](C1)c1cccc3c1N2CC3)c1ccc(F)cc1 | 5.5 |
| COc1ccc(C(=O)NCCCCN2CC[C@@H]3[C@H](C2)c2cccc4c2N3CC4)cc1 | 5.1 |
| O=C(NCCCN1CCC(Cc2ccc(F)cc2)CC1)Nc1cccc(-c2ncc[nH]2)c1 | 0.1 |
| O=S(=O)(NCCCCN1CC[C@@H]2[C@H](C1)c1cccc3c1N2CC3)c1ccc(F)cc1 | 6.4 |
| O=C(NCCCN1CC[C@@H]2[C@H](C1)c1cccc3c1N2CC3)Nc1ccc(I)cc1 | 1.5 |
| COc1cccc(NC(=O)N2CCC(CN3CCC(Cc4ccc(F)cc4)CC3)C2)c1 (racemic) | 0.24 |
| CC(=O)c1ccc(NC(=O)NCCCN2CCC(Cc3ccc(F)cc3)CC2)cc1 | 0.2 |
| CCC[C@H]1C[C@@H](Cc2ccccc2)CCN1CCCNC(=O)Nc1cccc(C(C)=O)c1 (stereo in doubt; 79) | 0.1 |

Other lines, results leading:

| IC50 [µM] | Compound |
| --- | --- |
| 0.1 | CC(=O)c1cccc(NC(=O)NCCCN2CC[C@H](Cc3ccccc3)C[C@@H]2[C@H](O)C(C)C)c1 |
| 0.089 | O=C(NCCCN1CCC(Cc2ccc(F)cc2)CC1)Nc1ccccc1[N+](=O)[O-] |
| 0.07 | O=C(NCCCN1CCC(Cc2ccc(F)cc2)CC1)Nc1cccc(C(F)(F)F)c1 |
| 0.06 | O=C(NCCCN1CCC(Cc2ccc(F)cc2)CC1)Nc1ccc(C(F)(F)F)cc1 |
| 0.05 | COc1cccc(NC(=O)N2CCOC(CN3CCC(Cc4ccc(F)cc4)CC3)C2)c1 (racemic) |
| 0.05 | C[S+]([O-])c1cccc(NC(=O)NCCCN2CCC(Cc3ccc(F)cc3)CC2)c1 (stereo not drawn) |
| 0.05 | COc1cccc(NC(=O)N2CCCC(CN3CCC(Cc4ccc(F)cc4)CC3)C2)c1 (racemic) |
| 0.05 | CC(=O)c1cccc(NC(=O)NCCCN2CC[C@H](Cc3ccccc3)C[C@@H]2C(C)(O)O)c1 |
| 0.04 | COc1cccc(NC(=O)N2CCN(C(=O)OC(C)(C)C)C(CN3CCC(Cc4ccc(F)cc4)CC3)C2)c1 (racemic) |
| 0.04 | CSc1ccc(NC(=O)NCCCN2CCC(Cc3ccc(F)cc3)CC2)cc1 |
| 0.03 | COc1cccc(NC(=O)N2CCNC(CN3CCC(Cc4ccc(F)cc4)CC3)C2)c1 (racemic) |
| 0.03 | O=C(NCCCN1CCC(Cc2ccc(F)cc2)CC1)Nc1ccccc1 |
| 0.03 | COc1cccc(NC(=O)NCCCN2CCC(Cc3ccc(F)cc3)CC2)c1 |
| 0.03 | COc1cccc(NC(=O)N2CCO[C@H](CN3CCC(Cc4ccc(F)cc4)CC3)C2)c1 |
| 0.02 | CC(=O)c1cccc(NC(=O)NCCCN2CC[C@H](Cc3ccccc3)C[C@@H]2[C@H](C)O)c1 |
| 0.02 | CC(=O)c1cccc(NC(=O)NCCCN2CC[C@H](Cc3ccccc3)C[C@@H]2[C@@H](O)CC(C)C)c1 |
| 0.02 | N#Cc1cccc(NC(=O)NCCCN2CCC(Cc3ccc(Cl)cc3)CC2)c1 |
| 0.02 | N#Cc1ccc(NC(=O)NCCCN2CCC(Cc3ccc(F)cc3)CC2)cc1 |
| 0.02 | N#Cc1cccc(NC(=O)NCCCN2CCC(Cc3ccc(F)cc3)CC2)c1 |
| 0.01 | CC(=O)c1cccc(NC(=O)NCCCN2CCC(Cc3ccc(F)cc3)CC2)c1 |
| 0.009 | O=C(NCCCN1CCC(Cc2ccc(F)cc2)CC1)Nc1cccc([N+](=O)[O-])c1 |
| 0.008 | CC[C@H](O)[C@H]1C[C@@H](Cc2ccccc2)CCN1CCCNC(=O)Nc1cccc(C(C)=O)c1 (stereo in doubt) |
| 0.007 | CCC[C@H](O)[C@H]1C[C@@H](Cc2ccccc2)CCN1CCCNC(=O)Nc1cccc(C(C)=O)c1 |
| 0.005 | Cn1nnnc1-c1cccc(NC(=O)NCCCN2CCC(Cc3ccc(F)cc3)CC2)c1 |
| 0.005 | CCCC[C@H](O)[C@H]1C[C@@H](Cc2ccc(F)cc2)CCN1CCCNC(=O)Nc1cccc(C(C)=O)c1 |
| 0.001 | CCCC[C@H](O)[C@H]1C[C@@H](Cc2ccccc2)CCN1CCCNC(=O)Nc1cccc(-c2nnnn2C)c1 |
| 0.001 | CCCC[C@H](O)[C@H]1C[C@@H](Cc2ccccc2)CCN1CCCNC(=O)Nc1cccc(C(C)=O)c1 (stereo in doubt; form 1) |

Molecular target: T2, C-C chemokine receptor type 3 (Homo sapiens)
Experiment: In vitro inhibitory activity of compound against C-C chemokine receptor type 3 at 5 uM using 150p M [125I]-labeled human eotaxin as radioligand
Settings: not given

| inhibition [%] | Compound |
| --- | --- |
| 52 | N#Cc1cccc(NC(=O)NCCCN2CCC(Cc3ccc(C(F)(F)F)cc3)CC2)c1 |

Molecular target: T2, C-C chemokine receptor type 3 (Homo sapiens)
Experiment: not given
Settings: 0.5 uM

| inhibition [%] | Compound |
| --- | --- |
| 40 | CC[C@H](O)[C@H]1C[C@@H](Cc2ccccc2)CCN1CCCNC(=O)Nc1cccc(C(C)=O)c1 |
